{"source": "patent US20230133209A1", "about": "“CELL CLASSIFIER CIRCUITS AND METHODS OF USE THEREOF” (Eidgenössische Technische Hochschule Zürich, priority 2020, published 2023)", "tested_on": "HepG2-LC tumor-bearing mice", "experiment": "Antitumor efficacy in orthotopic HepG2 xenograft tumor model (bioluminescence tumor load, score sheet)", "assay_type": "in vivo, mouse", "procedure": "Accordingly, this tumor-targeting program was evaluated in a pilot experiment in the context of orthotopic xenograft tumor model employing HepG2 cells in NSG mice. For the purpose of tumor establishment and tracking, HepG2 cells were stably modified with a lentiviral vector encoding an mCitrine fluorescent protein and firefly luciferase gene, and sorted for homogenous mCitrine expression. The tumors were established by splenic injection of 1M HepG2-LC cells and subsequent spleen dissection.\nTo gauge antitumor efficacy in vivo, AAV-DJ-HCC.V1-HSV-TK was delivered to HepG2 tumor bearing mice in two consecutive injections, three days apart. The four experimental groups (n=2 in this pilot) included the AAV-DJ-HCC.V1-HSV-TK in combination with GCV regimen (treatment arm), the same vector alone without GCV, sham injection supplemented with GCV regimen, and a sham PBS injection and no GCV.\nNext, DJ-pseudotyped AAV vectors harboring the circuit were delivered systemically to HepG2-LC tumor-bearing mice (FIG. 7A). […]\nXenograft mouse liver mouse model: All animal procedures were performed in accordance with the Swiss federal law and institutional guidelines of Eidgenössische Technische Hochschule (ETH) Zurich, and approved by the animal ethics committee of canton Basel-Stadt. […] The tumor growth in mice was monitored by bioluminescence imaging 2-3 times per week (PhotonIMAGER RT, Biospace Lab). […]", "data": [{"compound": "Nc1nc(O)c2ncn(COC(CO)CO)c2n1", "note": "[GCV, ganciclovir]", "values": [{"measurement": "tumor load over time (bioluminescence)", "setting": "n=4 per arm, sham injection + GCV", "value": "exponential tumor load increase over time"}, {"measurement": "antitumor activity (tumor load, bioluminescence)", "setting": "pilot, n=2, sham injection supplemented with GCV regimen", "value": "absent"}]}]}
